The results in this text go back to patent US6934639B1, “Methods for designing agents that interact with MMP-13” (Wyeth, priority 2000, dated 2005).

Holding throughout (format): biochemical
For one assay, the target named is MMP-13 (Homo sapiens, UniProt P45452). Kind of assay: MMP-13 enzyme inhibition (IC50).
Another assay has as its target T1, MMP-1 (Homo sapiens, UniProt P03956).
T1 sequence (P03956 100-469): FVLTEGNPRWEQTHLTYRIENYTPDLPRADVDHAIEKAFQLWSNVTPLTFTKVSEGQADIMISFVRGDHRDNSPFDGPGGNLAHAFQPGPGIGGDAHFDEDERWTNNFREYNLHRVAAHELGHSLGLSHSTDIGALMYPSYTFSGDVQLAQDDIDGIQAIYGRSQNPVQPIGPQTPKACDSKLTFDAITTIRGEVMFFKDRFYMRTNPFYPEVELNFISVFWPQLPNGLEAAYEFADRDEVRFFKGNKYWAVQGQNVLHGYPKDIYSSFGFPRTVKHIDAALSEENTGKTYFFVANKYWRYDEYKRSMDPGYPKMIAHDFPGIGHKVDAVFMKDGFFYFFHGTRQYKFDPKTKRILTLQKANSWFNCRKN
Kind of assay: MMP-1 enzyme inhibition (IC50).

The next assay addresses MMP-9 (Homo sapiens, UniProt P14780). Kind of assay: MMP-9 enzyme inhibition (IC50).
The next assay has as its target TACE (Homo sapiens, UniProt P78536). Put plainly: TACE enzyme inhibition (IC50).

As a reminder, the IC50 is the concentration needed to halve the response being measured. A lower IC50 goes with inhibition by little substance.

Sequence of TACE (P78536 215-824): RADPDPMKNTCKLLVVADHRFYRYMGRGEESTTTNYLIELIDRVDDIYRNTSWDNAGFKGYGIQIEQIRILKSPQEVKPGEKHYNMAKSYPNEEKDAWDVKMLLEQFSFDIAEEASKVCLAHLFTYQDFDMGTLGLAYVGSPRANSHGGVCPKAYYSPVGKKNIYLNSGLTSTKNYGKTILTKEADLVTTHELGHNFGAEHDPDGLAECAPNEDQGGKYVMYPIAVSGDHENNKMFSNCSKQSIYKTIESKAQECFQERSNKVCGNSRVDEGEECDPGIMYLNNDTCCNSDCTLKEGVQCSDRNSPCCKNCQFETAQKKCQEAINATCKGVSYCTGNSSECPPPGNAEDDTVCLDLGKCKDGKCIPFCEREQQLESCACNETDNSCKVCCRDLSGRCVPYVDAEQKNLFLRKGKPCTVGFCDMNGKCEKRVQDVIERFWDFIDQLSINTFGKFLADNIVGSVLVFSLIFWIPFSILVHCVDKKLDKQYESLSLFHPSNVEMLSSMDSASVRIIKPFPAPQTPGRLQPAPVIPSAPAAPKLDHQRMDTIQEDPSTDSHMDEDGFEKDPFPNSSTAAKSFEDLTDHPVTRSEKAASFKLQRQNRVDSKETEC
Sequence of MMP-9 (P14780 94-707, species assumed): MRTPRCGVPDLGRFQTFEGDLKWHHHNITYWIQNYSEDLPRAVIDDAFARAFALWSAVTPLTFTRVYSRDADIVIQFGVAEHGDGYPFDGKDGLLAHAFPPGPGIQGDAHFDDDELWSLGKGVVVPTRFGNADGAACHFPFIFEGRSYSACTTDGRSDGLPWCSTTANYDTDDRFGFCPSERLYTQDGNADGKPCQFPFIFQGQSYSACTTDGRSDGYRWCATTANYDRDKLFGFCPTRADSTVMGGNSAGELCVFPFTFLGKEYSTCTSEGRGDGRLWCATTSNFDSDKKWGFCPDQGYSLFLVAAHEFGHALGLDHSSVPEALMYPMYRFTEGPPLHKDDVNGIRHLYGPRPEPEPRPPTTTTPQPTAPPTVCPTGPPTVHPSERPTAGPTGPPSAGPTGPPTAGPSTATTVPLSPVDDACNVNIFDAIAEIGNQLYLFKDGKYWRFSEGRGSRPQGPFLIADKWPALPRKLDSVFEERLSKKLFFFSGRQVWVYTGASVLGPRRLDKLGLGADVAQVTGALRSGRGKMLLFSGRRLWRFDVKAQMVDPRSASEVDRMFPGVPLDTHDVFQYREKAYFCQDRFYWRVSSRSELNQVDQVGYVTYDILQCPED

In the case of `COc1ccc(S(=O)(=O)N(Cc2cccnc2)c2c(C)cccc2C(=O)NO)cc1` [Compound A, N-Hydroxy-2-[(4-methoxy-benzenesulfonyl)-pyridin-3-ylmethyl-amino]-3-methyl-benzamide], at MMP-13, the “potency as inhibitor of MMP-13” value was “low nanomolar”.
As for `COc1ccc(S(=O)(=O)N(Cc2cccnc2)[C@@H](C(=O)NO)C(C)C)cc1` [CGS-27023A, reference compound], the “potency as inhibitor of MMP-1” value on MMP-1 is listed as “low nanomolar”.
Take `Cc1cc(C)c(N(Cc2ccccc2)S(=O)(=O)c2ccc(OCCNC(=O)c3cc4ccccc4o3)cc2)c(C(=O)NO)c1` [Compound E, Benzofuran-2-carboxylic acid (2-{4-[benzyl-(2-hydroxycarbamoyl-4,6-dimethyl-phenyl)-sulfamoyl]-phenoxy}-ethyl)-amide]: the IC50 at MMP-13 was determined as 17 nM; on MMP-9, 945 nM.
On to `Cc1cc(C)c(N(Cc2ccccc2)S(=O)(=O)c2ccc(OCCc3ccccc3)cc2)c(C(=O)NO)c1` [Compound C, 2-[Benzyl-(4-phenethyloxy-benzenesulfonyl)-amino]-N-hydroxy-3,5-dimethyl-benzamide], for which the IC50 against MMP-13 stood at 75 nM; against MMP-1 it was 750 nM; against MMP-9, 46 nM.
With `Cc1cc(C)c(N(Cc2ccccc2)S(=O)(=O)c2ccc(OCCCc3ccccc3)cc2)c(C(=O)NO)c1` [Compound F], the IC50 is 301 nM at MMP-13, 664 nM on TACE, 1020 nM against MMP-1 and 71 nM at MMP-9. Further, the “S-TACE: selectivity, ratio of TACE IC50 with MMP-13” value on TACE (TACE IC50 / MMP-13 IC50) is on record as 2.2 x. On MMP-1 (MMP-1 IC50 / MMP-13 IC50), the “S-1: selectivity, ratio of MMP-1 IC50 with MMP-13” value came to 3.4 x. Besides, the “S-9: selectivity, ratio of MMP-9 IC50 with MMP-13” value at MMP-9 (MMP-9 IC50 / MMP-13 IC50) is listed as 0.2 x.
As for `COc1ccc(S(=O)(=O)N(Cc2ccccc2)c2c(C)cc(C)cc2C(=O)NO)cc1` [Compound D, 2-[Benzyl-(4-methoxy-benzenesulfonyl)-amino]-N-hydroxy-3,5-dimethyl-benzamide], the IC50 against TACE was 240 nM.
